- melting point: 198.5 to 200 °C
Structure (SMILES): COc1ccc2c(C(F)(F)F)c(CC(=O)O)c(=O)oc2c1

Source: US6756209B1, “7-Alkoxycoumarins as CYP2C9 substrates and activity assay” (SmithKline Beecham p.l.c., priority 1998, dated 2004)
